Measured values published in US6887864B2, “Azepane derivatives” (Hoffmann-La Roche Inc., priority 2002, dated 2005).

Experiments:
[1] = mouse plasma stability test; assay type: in vitro ADME; details: 10 μmol/1, 37° C.
Procedure: After defined periods of time with respect to the addition of said compounds to the mouse-plasma (t=0, 0.5, 1, 2, 4 h ), equal portions were isolated from the plasma, separated with HPLC and analyzed by mass spectrometry. During all these steps, the temperature was kept constant at 37° C. In the following table, the plasma stability of compounds according to the invention was compared to one of the selected compounds from EP 0 663 393 A1.

AKT [2] = molecular target: T1, AKT (Homo sapiens, UniProt P31749); assay: ELISA-based AKT kinase assay; assay type: biochemical; set-up: made in house; host or cells: Sf9 insect cells; details: AKT expressed in Sf9 cells, substrate peptide 300 nM, ATP 5 μM, 30 min at room temperature
T1 sequence (P31749 whole entry): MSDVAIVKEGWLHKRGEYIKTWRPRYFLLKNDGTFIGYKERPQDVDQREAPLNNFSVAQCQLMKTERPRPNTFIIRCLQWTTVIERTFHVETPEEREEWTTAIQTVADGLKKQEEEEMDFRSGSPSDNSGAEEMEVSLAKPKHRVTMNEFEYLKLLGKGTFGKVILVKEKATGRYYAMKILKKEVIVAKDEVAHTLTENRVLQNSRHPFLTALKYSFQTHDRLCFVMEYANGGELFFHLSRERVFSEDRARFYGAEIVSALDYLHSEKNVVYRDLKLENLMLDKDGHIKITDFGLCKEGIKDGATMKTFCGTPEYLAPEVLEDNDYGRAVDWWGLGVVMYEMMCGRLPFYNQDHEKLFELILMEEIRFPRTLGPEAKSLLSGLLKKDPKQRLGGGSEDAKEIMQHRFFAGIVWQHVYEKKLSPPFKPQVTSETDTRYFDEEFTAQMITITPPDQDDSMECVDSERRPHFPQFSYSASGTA
From the text: In order to study AKT inhibitory activity of the compounds according to the invention, an ELISA-based assay was developed for AKT. The assay design utilized a N-terminally biotinylated substrate peptide. When this substrate was phosphorylated by the AKT kinase, the product was recognized by a substrate/sequence-specific antibody known to bind to particular phosphorylated serine residues. For this assay, a Biotin-[…] peptide and anti-phospho-GSK-3α Ser21 antibody (rabbit) from Cell Signaling Technology/New England Biolabs were used.
The enzymatic reactions were carried out with AKT expressed in Sf9 cells (100 ng/reaction), substrate peptide (300 nM) and ATP (5 μM) in the absence or presence of different concentrations of compounds dissolved in DMSO. The final concentration of DMSO was 1%. The mixtures were reacted for 30 min at room temperature in assay buffer containing 50 mM Tris-HCl, 10 mM MgCl2, 1.0 mM DTT, 2 mM Na3VO4, pH 7.5, in a final volume of 40 μl. The reaction was stopped with addition of 10 μl 0,12 M EDTA/0,12 M EGTA. The reaction mixture was transferred to a SA-coated micro-titer-plate. After 1 h incubation, the plate was washed with PBS using a 384-well Embla plate washer. Anti-phospho-GSK-3α Ser21 antibody was added. After 1 h incubation the plate was washed with PBS and bound antibody was detected by addition of polyclonal<Rabbit>S-IgG-POD-conjugate from Roche Diagnostics GmbH. After 1 h incubation, the plate was washed with PBS. Amount of phosphorylated peptide was measured by an enzyme-catalyzed color reaction (ABTS conversion) and photometrical measurement at 405 nm.
Calculation of IC50 values were performed with ActivityBase.

AKT [3] = molecular target: T1, AKT; assay: cellular AKT activity assay (GSK-3 Ser21/Ser9 phosphorylation in LNCaP cells, immunoblot); assay type: cell-based; set-up: endogenous in cells; host or cells: LNCaP prostate cancer cells; details: 1 h treatment, inhibitors 6 μM to 187 nM, read-out: values found for effect on AKT activity in living cells (level of GSK-3-Ser21/Ser9 phosphorylation)
From the text: Additionally to Example 3 the acticity of compounds according to the invention was studied on a cellular AKT activity assay as follows:
Prostate cancer cell line LNCaP was passaged in RPMI 1640 with 10% fetal calf serum, 50 units/ml penicillin, and 50 units/ml streptomycin. LNCaP cells were characterized by a constitutive activation of AKT. Constitutive active AKT phosphorylates glycogen synthase kinase-3 (GSK-3) at Ser21/Ser9 in LNCaP cells. To measure the effect of compounds on the activity of AKT in living cells, LNCaP cells were treated with various concentrations of inhibitors (6 μM to 187 nM). After 1 h, the cells were harvested in lysis solution containing 50 mM HEPES (pH 7.0), 150 mM NaCl, 1.5 mM MgCl2 ,1 mM EGTA, 100 mM NaF, 10 mM sodium PPi, 10% glycerol, 1% Triton X-100, 1 mM Na3 […], […], 5 mM iodoacetic acid, and […]. The proteins from whole cell extracts were electrophoresed on 7.5% SDS/PAGE gels. Afterwards, proteins were transferred onto Nitrocellulose filter and immunoblotting using the enhanced chemiluminescence (ECL) detection system (Amersham Pharmacia) was performed. The level of GSK-3-Ser21/Ser9 phosphorylation was thereby determined using polyclonal anti-P-GSK-3-Ser-21/9 antibody (rabbit; New England Biolabs).

melting point [°C]	Decrease [%] (after 4 h) [1]	IC50 (AKT [2]) [nM]	IC50 (AKT [3]) [nM]	SMILES
203 to 206				CN(C)c1ccc(O)c(C(=O)c2ccc(C(=O)N[C@@H]3CCCNC[C@H]3NC(=O)c3ccc(O)cc3)cc2)c1.Cl
108 to 114				Cl.O=C(N[C@@H]1CCCNC[C@H]1NC(=O)c1ccncc1)c1ccc(C(=O)c2cc(O)ccc2O)cc1
200 to 222	6.2			COc1ccc(O)c(C(=O)c2ccc(C(=O)N[C@@H]3CCCNC[C@H]3NC(=O)c3ccncc3)cc2)c1F.Cl [Example 1a, N-{(3R, 4R)-4-[4-(2-Fluoro-6-hydroxy-3-methoxy-benzoyl)-benzoylamino]-azepan-3-yl}-isonicotinamide hydrochloride]
203 to 208				Cc1cc(C(=O)c2ccc(C(=O)N[C@@H]3CCCNC[C@H]3NC(=O)c3ccncc3)cc2)c(O)cn1.Cl
215				CC(C)(C)c1ccc2cc(O)c(C(=O)c3ccc(C(=O)N[C@@H]4CCCNC[C@H]4NC(=O)c4ccncc4)cc3)c(F)c2n1.Cl
247 to 251				Cl.O=C(N[C@@H]1CCCNC[C@H]1NC(=O)c1ccncc1)c1ccc(C(=O)c2c(O)cc3cccnc3c2F)cc1
183 to 185	26.9	11	1500	CSc1ccc(O)c(C(=O)c2ccc(C(=O)N[C@@H]3CCCNC[C@H]3NC(=O)c3ccncc3)cc2)c1.Cl [Example 2-2, N-{(3R,4R)-4-[4-(6-Hydroxy-3-methylsulfanyl-benzoyl)-benzoylamino]-azepan-3-yl}-isonicotinamide hydrochloride]
256 to 265				COc1ccc(O)c(C(=O)c2ccc(C(=O)N[C@@H]3CCCNC[C@H]3NC(=O)c3ccncn3)cc2)c1F.Cl
229 to 234				CC1(C)CCN(c2ccc(O)c(C(=O)c3ccc(C(=O)N[C@@H]4CCCNC[C@H]4NC(=O)c4ccncc4)cc3)c2)CC1.Cl
190 to 196				COc1ccc(O)c(C(=O)c2ccc(C(=O)N[C@@H]3CCCNC[C@H]3NC(=O)c3ccc(O)cc3)cc2)c1F.Cl
195 to 210				Cl.O=C(N[C@@H]1CCCNC[C@H]1NC(=O)c1ccncc1)c1ccc(C(=O)c2cc(C3CCCCN3)ccc2O)cc1 (stereo partly drawn)
181 to 184	21.9	7	3000	Cc1ccc(O)c(C(=O)c2ccc(C(=O)N[C@@H]3CCCNC[C@H]3NC(=O)c3ccncc3)cc2)c1F.Cl [Example 2-1, N-{(3R,4R)-4-[4-(2-Fluoro-6-hydroxy-3-methyl-benzoyl)-benzoylamino]-azepan-3-yl}-isonicotinamide hydrochloride]
265				CC1(C)CCCNC1c1ccc(O)c(C(=O)c2ccc(C(=O)N[C@@H]3CCCNC[C@H]3NC(=O)c3ccncc3)cc2)c1F.Cl (stereo partly drawn)
215 to 220				Cl.O=C(N[C@@H]1CCCNC[C@H]1NC(=O)c1ccncc1)c1ccc(C(=O)c2c(O)ccc3ncccc23)cc1
227 to 230				CC(C)Nc1ccc(O)c(C(=O)c2ccc(C(=O)N[C@@H]3CCCNC[C@H]3NC(=O)c3ccncc3)cc2)c1.Cl
230 to 240		15	2000	COc1ccc(O)c(C(=O)c2ccc(C(=O)N[C@@H]3CCCNC[C@H]3NC(=O)c3ccncc3)cc2)c1.Cl [Example 2-5, N-{(3R,4R)-4-[4-(2-Hydroxy-5-methoxy-benzoyl)-benzoylamino]-azepan-3-yl}-isonicotinamide hydrochloride]
218 to 224				Cl.O=C(N[C@@H]1CCCNC[C@H]1NC(=O)c1ccncc1)c1ccc(C(=O)c2cc(N3CCCCC3)ccc2O)cc1
230 to 245				CN(C)c1ccc(O)c(C(=O)c2ccc(C(=O)N[C@@H]3CCCNC[C@H]3NC(=O)c3ccncc3)cc2)c1.Cl
243 to 249				CC(C)Oc1ccc(O)c(C(=O)c2ccc(C(=O)N[C@@H]3CCCNC[C@H]3NC(=O)c3ccncc3)cc2)c1.Cl
230 to 240				Cl.O=C(N[C@@H]1CCCNC[C@H]1NC(=O)c1ccncc1)c1ccc(C(=O)c2c(O)ccc3c2OCCO3)cc1
215 to 219		16	1000	Cc1ccc(O)c(C(=O)c2ccc(C(=O)N[C@@H]3CCCNC[C@H]3NC(=O)c3ccncc3)cc2)c1.Cl [Example 2-6, N-{(3R,4R)-4-[4-(2-Hydroxy-5-methyl-benzoyl)-benzoylamino]-azepan-3-yl}-isonicotinamide hydrochloride]
215 to 218				Cl.NCc1ccc(O)c(C(=O)c2ccc(C(=O)N[C@@H]3CCCNC[C@H]3NC(=O)c3ccncc3)cc2)c1
223 to 241				COc1ccc(O)c(C(=O)c2ccc(C(=O)N[C@@H]3CCCNC[C@H]3NC(=O)c3ccnc(N)c3)cc2)c1F.Cl
255 to 260				Cc1ccc2cc(O)c(C(=O)c3ccc(C(=O)N[C@@H]4CCCNC[C@H]4NC(=O)c4ccncc4)cc3)c(F)c2n1.Cl
194 to 198				CC1(C)CCCN(c2ccc(O)c(C(=O)c3ccc(C(=O)N[C@@H]4CCCNC[C@H]4NC(=O)c4ccncc4)cc3)c2)C1.Cl
190 to 196				Cc1cccc(C(=O)c2ccc(C(=O)N[C@@H]3CCCNC[C@H]3NC(=O)c3ccncc3)cc2)c1.Cl
185 to 193		116	> 24000	COc1ccc(O)c(C(=O)c2ccc(C(=O)N[C@@H]3CCCNC[C@H]3NC(=O)c3ccncc3)cc2)c1OC.Cl [Example 2-4, N-{(3R,4R)-4-[4-(6-Hydroxy-2,3-dimethoxy-benzoyl)-benzoylamino]-azepan-3-yl}-isonicotinamide hydrochloride]
180 to 183				COc1ccc(O)c(C(=O)c2ccc(C(=O)N[C@@H]3CCCNC[C@H]3NC(=O)c3cc(C)c(O)c(C)c3)cc2)c1F.Cl
217 to 219				Cc1cc(C(=O)N[C@@H]2CNCCC[C@H]2NC(=O)c2ccc(C(=O)c3cc(N(C)C)ccc3O)cc2)cc(C)c1O.Cl
